Where “and” joins values, the source holds several entries; their conditions need not be identical. Equal values may be shown once.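 Following 48 hours of exposure in 96-well plates, responses at five concentrations were used to interpolate endpoints linearly. GI50 = concentration required for 50% inhibition of growth. TGI: concentration producing complete growth inhibition.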
Experiments:
Assay in all cases: growth of human tumour cells (NCI), 48 h
DLD-1 colon = system: DLD-1 colon
HOP-18 NSCLC = system: HOP-18 NSCLC
KM20L2 colon = system: KM20L2 colon
LXFL 529 NSCLC = system: LXFL 529 NSCLC
M19-MEL melanoma = system: M19-MEL melanoma
RXF-631 renal = system: RXF-631 renal
XF 498 CNS = system: XF 498 CNS
HS 578T breast = system: HS 578T breast
MDA-N = system: MDA-N

Structure (SMILES)	TGI (DLD-1 colon) [µM]	TGI (HOP-18 NSCLC)	TGI (KM20L2 colon) [µM]	TGI (LXFL 529 NSCLC) [µM]	TGI (M19-MEL melanoma) [µM]	TGI (RXF-631 renal) [µM]	TGI (XF 498 CNS) [µM]	GI50 (DLD-1 colon) [µM]	GI50 (HOP-18 NSCLC) [µM]	GI50 (KM20L2 colon) [µM]	GI50 (LXFL 529 NSCLC) [µM]	GI50 (M19-MEL melanoma) [µM]	GI50 (RXF-631 renal) [µM]	GI50 (XF 498 CNS) [µM]	GI50 (HS 578T breast) [µM]	TGI (HS 578T breast) [µM]	TGI (MDA-N) [µM]
N#Cc1cnsc1	> 100	> 100 µM	> 100	> 100	> 100	> 100	> 100										
COC(=O)CSc1n[nH]c(-c2ccc(O)c([N+](=O)[O-])c2)n1	> 100		> 100	> 100		> 100	> 100										
COC(=O)C(=O)C(C(=O)C(=O)Nc1ccc(C)cc1C)c1nc2ccccc2[nH]c1=O (stereo unspecified)	> 100	> 100 µM	> 100	> 100	> 100	> 100	> 100										
O=C(CC(=O)N1N=C(c2ccccc2)C(N=Nc2ccc(Cl)cc2)C1=O)Nc1ccccc1Cl (stereo unspecified)	> 100	67.8 µM	> 100	> 100	> 100	> 100	89.7										
CCc1cccc(C)c1NC(C)=O	> 100		> 100	> 100	> 100	> 100	> 100										
NC1C2(CCCCCC2)NC(=O)C12CCCCCC2 (stereo unspecified)	> 100	> 100 µM		> 100		> 100	> 100										
NCCCNCCSSCCCCS(=O)O	> 100	> 100 µM	> 100	92.2	40.5	> 100	37.4										
N#CCCN(c1ccc(/C=C2\N=C(c3ccc(Cl)cc3)OC2=O)cc1)S(=O)(=O)c1ccccc1	> 100		> 100	> 100	> 100	> 100	> 100										
Cc1ccc(NC(=O)C2C(=O)N(c3ccc(C)c(C)c3)C(=O)/C2=N/O)cc1C (stereo unspecified)	> 100	> 100 µM	> 100	> 100		> 100	> 100										
Cc1ccc(N=NC(C(=O)c2ccccc2)C(=O)c2ccccc2)cc1	76		60.9	> 100	41.2	> 100	54.6										
COC(=O)c1cc2c(c(C(=O)OC)c1O)C(=O)C=CC2=O	> 46.1	9.1 µM and 29.9 µM	> 56.4	9.1	> 58.5	> 71.2	> 100	> 9.1	16.3	> 9.1	4.16	> 9.1	> 9.1	37.8			
CCOC(=O)NC(=O)c1cn(CCCOC(=O)NCCCCCCNC(=O)OCCCn2c(=O)c(C(=O)NC(=O)OCC)cn(C)c2=O)c(=O)n(C)c1=O	> 100	> 100 µM	> 100	> 100	> 100	> 100											
O=C1C2=C(CC3C(C2)C3(Br)Br)C(=O)C2=C1CC1C(C2)C1(Br)Br (stereo unspecified)	> 100	> 100 µM	> 100	> 100	> 100	> 100	> 100										
Cc1cc(C2CCCCC2)n(O)c(=O)c1	> 100	> 100 µM	> 100	> 100	> 100	> 100	35.8								46	> 100	
CC(=O)c1ccc(NC(=O)/C(Cc2ccccn2)=N/NC(=O)C[N+](C)(C)C)cc1	> 100	> 100 µM	> 100	> 100	> 100	> 100											
CC(C)=CC(=O)N1CCN(C(=O)C=C(C)C)CC1	> 100	> 100 µM	> 100	> 100	> 100	> 100	> 100										
CCC1(O)C(=O)OCc2c1cc1n(c2=O)Cc2cc3c(N)cccc3nc2-1 (stereo unspecified)	> 56.4	0.903 µM	20.5	4.71	1.29	1.62	1.85				0.307					22.8	2.57

— PubChem BioAssay (NCI)
